Molecular target: T1, WIZ (Homo sapiens, UniProt O95785+Q96SW2)
T1 construct: expressed in transfected cells
Test: Quantification of WIZ protein levels in HiBit tag fusion protein assay (WIZ HiBit assay in 293T cells)
Format: cell-based
Conditions: for Dmax at 25 µM / remaining activity at 25 µM: HEK-293T; for Dmax at 25 µM: 100 minus Amax at 25 uM, read-out: % degradation of WIZ (100-Amax); for remaining activity at 25 µM: DMSO-normalized, curve-fitted percentage of WIZ-HiBit remaining at 25 uM, read-out: WIZ Amax; for DC50: WIZ HiBit assay in 293T cells, 10-point, 5-fold dilution, highest concentration 25 μM, about 18 hours, read-out: WIZ AC50
Procedure, shortened: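 293T cells stably carrying single-copy HiBit-WIZ (HSVTK promoter) treated ~18 h at 37 °C with 10-point, 5-fold dilutions, top 25 μM. Lytic HiBit luminescence read; Amax is DMSO-normalised, curve-fitted % WIZ-HiBit remaining at 25 uM.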

T1 sequence (O95785 whole entry): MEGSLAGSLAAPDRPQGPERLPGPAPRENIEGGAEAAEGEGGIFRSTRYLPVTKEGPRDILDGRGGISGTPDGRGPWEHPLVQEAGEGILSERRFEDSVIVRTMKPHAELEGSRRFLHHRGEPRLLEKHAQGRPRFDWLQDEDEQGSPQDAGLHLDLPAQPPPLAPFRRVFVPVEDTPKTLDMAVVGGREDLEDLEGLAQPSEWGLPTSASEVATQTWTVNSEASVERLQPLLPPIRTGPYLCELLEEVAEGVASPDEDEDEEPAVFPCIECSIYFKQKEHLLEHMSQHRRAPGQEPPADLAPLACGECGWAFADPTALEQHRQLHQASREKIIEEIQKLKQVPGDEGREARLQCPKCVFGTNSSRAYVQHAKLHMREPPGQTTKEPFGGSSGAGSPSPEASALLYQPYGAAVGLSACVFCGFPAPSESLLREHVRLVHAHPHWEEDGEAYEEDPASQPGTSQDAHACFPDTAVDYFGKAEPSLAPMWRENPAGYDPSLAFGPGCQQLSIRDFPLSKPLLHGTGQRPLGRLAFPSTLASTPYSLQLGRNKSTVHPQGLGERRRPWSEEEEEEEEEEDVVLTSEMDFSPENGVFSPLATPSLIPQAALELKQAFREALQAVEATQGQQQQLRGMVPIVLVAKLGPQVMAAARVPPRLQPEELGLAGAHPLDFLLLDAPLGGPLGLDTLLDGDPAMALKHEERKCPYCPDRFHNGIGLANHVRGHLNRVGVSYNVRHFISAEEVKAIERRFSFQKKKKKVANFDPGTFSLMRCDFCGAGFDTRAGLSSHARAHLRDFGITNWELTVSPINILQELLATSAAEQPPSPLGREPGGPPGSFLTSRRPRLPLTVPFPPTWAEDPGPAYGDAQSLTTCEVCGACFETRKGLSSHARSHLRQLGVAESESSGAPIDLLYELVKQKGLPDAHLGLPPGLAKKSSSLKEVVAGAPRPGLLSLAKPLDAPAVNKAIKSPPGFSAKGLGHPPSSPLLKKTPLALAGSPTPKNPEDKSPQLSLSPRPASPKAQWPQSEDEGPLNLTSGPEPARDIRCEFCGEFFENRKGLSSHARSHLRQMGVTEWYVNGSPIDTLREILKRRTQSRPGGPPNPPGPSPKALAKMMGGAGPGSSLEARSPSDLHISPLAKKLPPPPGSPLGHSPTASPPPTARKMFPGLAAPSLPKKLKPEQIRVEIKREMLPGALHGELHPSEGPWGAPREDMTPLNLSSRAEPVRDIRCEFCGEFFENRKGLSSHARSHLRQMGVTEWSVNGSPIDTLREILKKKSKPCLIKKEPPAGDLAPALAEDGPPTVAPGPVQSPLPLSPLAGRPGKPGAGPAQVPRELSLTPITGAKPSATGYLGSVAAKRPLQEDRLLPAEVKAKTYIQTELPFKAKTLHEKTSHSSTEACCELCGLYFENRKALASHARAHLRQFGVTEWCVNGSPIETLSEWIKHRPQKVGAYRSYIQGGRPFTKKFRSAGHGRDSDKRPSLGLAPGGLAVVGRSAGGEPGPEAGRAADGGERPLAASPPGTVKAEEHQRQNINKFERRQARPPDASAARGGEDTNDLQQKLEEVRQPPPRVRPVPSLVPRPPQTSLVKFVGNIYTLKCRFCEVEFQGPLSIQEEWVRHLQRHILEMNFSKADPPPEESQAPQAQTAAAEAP
T1 sequence (Q96SW2 whole entry): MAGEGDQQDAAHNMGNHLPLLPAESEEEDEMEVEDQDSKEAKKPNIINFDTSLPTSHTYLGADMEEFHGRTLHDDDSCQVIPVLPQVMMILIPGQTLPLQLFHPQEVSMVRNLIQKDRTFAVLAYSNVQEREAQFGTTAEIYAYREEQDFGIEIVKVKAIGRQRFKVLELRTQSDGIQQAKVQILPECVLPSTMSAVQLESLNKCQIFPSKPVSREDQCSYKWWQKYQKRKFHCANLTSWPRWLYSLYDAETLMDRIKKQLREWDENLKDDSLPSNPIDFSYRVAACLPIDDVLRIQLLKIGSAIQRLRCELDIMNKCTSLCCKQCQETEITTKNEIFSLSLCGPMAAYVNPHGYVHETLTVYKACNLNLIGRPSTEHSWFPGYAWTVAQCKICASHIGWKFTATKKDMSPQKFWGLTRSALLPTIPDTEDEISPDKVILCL
T1 sequence (Q16531 whole entry partner): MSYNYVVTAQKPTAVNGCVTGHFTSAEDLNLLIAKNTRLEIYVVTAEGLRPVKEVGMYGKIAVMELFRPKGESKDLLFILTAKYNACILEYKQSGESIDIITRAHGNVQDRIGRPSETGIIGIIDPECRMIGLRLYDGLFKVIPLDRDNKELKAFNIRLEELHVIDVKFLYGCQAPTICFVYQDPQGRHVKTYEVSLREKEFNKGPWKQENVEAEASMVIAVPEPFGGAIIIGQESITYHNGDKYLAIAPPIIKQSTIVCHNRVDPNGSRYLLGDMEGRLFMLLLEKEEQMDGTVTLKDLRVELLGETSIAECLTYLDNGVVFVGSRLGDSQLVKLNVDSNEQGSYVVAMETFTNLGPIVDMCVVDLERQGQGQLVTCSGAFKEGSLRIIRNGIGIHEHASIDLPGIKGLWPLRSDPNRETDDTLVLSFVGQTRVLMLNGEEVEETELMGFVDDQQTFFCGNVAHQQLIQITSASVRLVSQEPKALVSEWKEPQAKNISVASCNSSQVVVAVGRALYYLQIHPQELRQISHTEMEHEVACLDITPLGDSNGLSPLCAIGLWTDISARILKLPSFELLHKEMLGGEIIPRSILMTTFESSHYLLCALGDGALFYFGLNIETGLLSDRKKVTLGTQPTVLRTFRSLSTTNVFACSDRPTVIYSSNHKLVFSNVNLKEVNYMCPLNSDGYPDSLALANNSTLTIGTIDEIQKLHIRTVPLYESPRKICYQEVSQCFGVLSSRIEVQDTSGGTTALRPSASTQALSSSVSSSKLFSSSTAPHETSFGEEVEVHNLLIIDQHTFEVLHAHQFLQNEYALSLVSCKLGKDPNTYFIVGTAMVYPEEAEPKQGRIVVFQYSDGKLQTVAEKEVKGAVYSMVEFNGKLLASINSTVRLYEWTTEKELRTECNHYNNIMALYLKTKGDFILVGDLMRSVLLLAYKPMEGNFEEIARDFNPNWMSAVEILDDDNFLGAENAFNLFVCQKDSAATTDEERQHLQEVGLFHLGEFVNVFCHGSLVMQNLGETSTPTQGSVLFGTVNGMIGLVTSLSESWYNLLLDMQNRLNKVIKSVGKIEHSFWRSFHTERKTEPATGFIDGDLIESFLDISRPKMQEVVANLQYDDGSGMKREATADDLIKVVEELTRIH

SMILES	Dmax at 25 µM [%]	remaining activity at 25 µM [%]	DC50 [nM]
C[C@@H]1CN(S(=O)(=O)N2CCCC2)CCN1Cc1ccc2onc(N3CCC(=O)NC3=O)c2c1 [Example 74, (R)-1-(5-((2-methyl-4-(pyrrolidin-1-ylsulfonyl)piperazin-1-yl)methyl)benzo[d]isoxazol-3-yl)dihydropyrimidine-2,4(1H,3H)-dione]	76	24	437
C[C@@H]1CN(C(=O)N2CCCC2)CCN1Cc1ccc2onc(N3CCC(=O)NC3=O)c2c1 [Example 75, (R)-1-(5-((2-methyl-4-(pyrrolidine-1-carbonyl)piperazin-1-yl)methyl)benzo[d]isoxazol-3-yl)dihydropyrimidine-2,4(1H,3H)-dione]	78	22	132
C[C@@H]1CN(C(=O)NC2CCCC2)CCN1Cc1ccc2onc(N3CCC(=O)NC3=O)c2c1 [Example 76, (R)—N-cyclopentyl-4-((3-(2,4-dioxotetrahydropyrimidin-1(2H)-yl)benzo[d]isoxazol-5-yl)methyl)-3-methylpiperazine-1-carboxamide]	78	22	115
C[C@@H]1CN(C2CCC2)CCN1Cc1ccc2onc(N3CCC(=O)NC3=O)c2c1 [Example 77, (R)-1-(5-((4-cyclobutyl-2-methylpiperazin-1-yl)methyl)benzo[d]isoxazol-3-yl)dihydropyrimidine-2,4(1H,3H)-dione]	82	18	22
C[C@@H]1CN(C2CCOCC2)CCN1Cc1ccc2onc(N3CCC(=O)NC3=O)c2c1 [Example 78, (R)-1-(5-((2-methyl-4-(tetrahydro-2H-pyran-4-yl)piperazin-1-yl)methyl)benzo[d]isoxazol-3-yl)dihydropyrimidine-2,4(1H,3H)-dione]	80	20	37
CC(C)N1CCN(Cc2ccc3onc(N4CCC(=O)NC4=O)c3c2)CC1 [Example 79, 1-(5-((4-isopropylpiperazin-1-yl)methyl)benzo[d]isoxazol-3-yl)dihydropyrimidine-2,4(1H,3H)-dione]	92	8	16
O=C1CCN(c2noc3ccc(CN4CCN(C5CCC5)CC4)cc23)C(=O)N1 [Example 80, 1-(5-((4-cyclobutylpiperazin-1-yl)methyl)benzo[d]isoxazol-3-yl)dihydropyrimidine-2,4(1H,3H)-dione]	93	7	14
O=C1CCN(c2noc3ccc(CN4CCN(C5CCOCC5)CC4)cc23)C(=O)N1 [Example 81, 1-(5-((4-(tetrahydro-2H-pyran-4-yl)piperazin-1-yl)methyl)benzo[d]isoxazol-3-yl)dihydropyrimidine-2,4(1H,3H)-dione]	90	10	26
C[C@H]1CN(Cc2ccc3onc(N4CCC(=O)NC4=O)c3c2)CCN1C1COC1 [Example 82, (S)-1-(5-((3-methyl-4-(oxetan-3-yl)piperazin-1-yl)methyl)benzo[d]isoxazol-3-yl)dihydropyrimidine-2,4(1H,3H)-dione]	95	5	77
CS(=O)(=O)N1CCN(Cc2ccc3onc(N4CCC(=O)NC4=O)c3c2)CC1 [Example 83, 1-(5-((4-(methylsulfonyl)piperazin-1-yl)methyl)benzo[d]isoxazol-3-yl)dihydropyrimidine-2,4(1H,3H)-dione]	83	17	93
CC(C)S(=O)(=O)N1CCN(Cc2ccc3onc(N4CCC(=O)NC4=O)c3c2)CC1 [Example 84, 1-(5-((4-(isopropylsulfonyl)piperazin-1-yl)methyl)benzo[d]isoxazol-3-yl)dihydropyrimidine-2,4(1H,3H)-dione]	82	18	145
CC(C)C(=O)N1CCN(Cc2ccc3onc(N4CCC(=O)NC4=O)c3c2)CC1 [Example 85, 1-(5-((4-isobutyrylpiperazin-1-yl)methyl)benzo[d]isoxazol-3-yl)dihydropyrimidine-2,4(1H,3H)-dione]	82	18	218
C[C@H]1CN(Cc2ccc3onc(N4CCC(=O)NC4=O)c3c2)CCN1CC1COC1 [Example 86, (S)-1-(5-((3-methyl-4-(oxetan-3-ylmethyl)piperazin-1-yl)methyl)benzo[d]isoxazol-3-yl)dihydropyrimidine-2,4(1H,3H)-dione]	86	14	11
CC[C@@H]1CN(C)CCN1Cc1ccc2onc(N3CCC(=O)NC3=O)c2c1 [Example 87, (R)-1-(5-((2-ethyl-4-methylpiperazin-1-yl)methyl)benzo[d]isoxazol-3-yl)dihydropyrimidine-2,4(1H,3H)-dione]	83	17	6
CC[C@@H]1CN(CC(C)C)CCN1Cc1ccc2onc(N3CCC(=O)NC3=O)c2c1 [Example 88, (R)-1-(5-((2-ethyl-4-isobutylpiperazin-1-yl)methyl)benzo[d]isoxazol-3-yl)dihydropyrimidine-2,4(1H,3H)-dione]	85	15	8
CC(C)[C@@H]1CN(C)CCN1Cc1ccc2onc(N3CCC(=O)NC3=O)c2c1 [Example 89, (R)-1-(5-((2-isopropyl-4-methylpiperazin-1-yl)methyl)benzo[d]isoxazol-3-yl)dihydropyrimidine-2,4(1H,3H)-dione]	83	17	28
CC(C)CN1CCN(Cc2ccc3onc(N4CCC(=O)NC4=O)c3c2)[C@H](C(C)C)C1 [Example 90, (R)-1-(5-((4-isobutyl-2-isopropylpiperazin-1-yl)methyl)benzo[d]isoxazol-3-yl)dihydropyrimidine-2,4(1H,3H)-dione]	85	15	7
CC(C)(C)OC(=O)N1CCN(Cc2ccc3onc(N4CCC(=O)NC4=O)c3c2)CC1(C)C [Example 91, tert-butyl 4-((3-(2,4-dioxotetrahydropyrimidin-1(2H)-yl)benzo[d]isoxazol-5-yl)methyl)-2,2-dimethylpiperazine-1-carboxylate]	81	19	298
CN1CCN(Cc2ccc3onc(N4CCC(=O)NC4=O)c3c2)CC1(C)C [Example 92, 1-(5-((3,3,4-trimethylpiperazin-1-yl)methyl)benzo[d]isoxazol-3-yl)dihydropyrimidine-2,4(1H,3H)-dione]	82	18	4
CC(C)(C)OC(=O)N1C[C@@H]2C[C@H]1CN2Cc1ccc2onc(N3CCC(=O)NC3=O)c2c1 [Example 93, tert-butyl (1S,4S)-5-((3-(2,4-dioxotetrahydropyrimidin-1(2H)-yl)benzo[d]isoxazol-5-yl)methyl)-2,5-diazabicyclo[2.2.1]heptane-2-carboxylate]	61	39	2180
CN1C[C@@H]2C[C@H]1CN2Cc1ccc2onc(N3CCC(=O)NC3=O)c2c1 [Example 94]	76	24	364
O=C1CCN(c2noc3ccc(CN4C[C@@H]5C[C@H]4CN5CC4CCOCC4)cc23)C(=O)N1 [Example 95, 1-(5-(((1S,4S)-5-((tetrahydro-2H-pyran-4-yl)methyl)-2,5-diazabicyclo[2.2.1]heptan-2-yl)methyl)benzo[d]isoxazol-3-yl)dihydropyrimidine-2,4(1H,3H)-dione]	82	18	188
CC(C)(C)OC(=O)N1C[C@H]2C[C@@H]1CN2Cc1ccc2onc(N3CCC(=O)NC3=O)c2c1 [Example 96, tert-butyl (1R,4R)-5-((3-(2,4-dioxotetrahydropyrimidin-1(2H)-yl)benzo[d]isoxazol-5-yl)methyl)-2,5-diazabicyclo[2.2.1]heptane-2-carboxylate]	66	34	1090
CN1C[C@H]2C[C@@H]1CN2Cc1ccc2onc(N3CCC(=O)NC3=O)c2c1 [Example 97]	84	16	192
O=C1CCN(c2noc3ccc(CN4C[C@H]5C[C@@H]4CN5CC4CCOCC4)cc23)C(=O)N1 [Example 98, 1-(5-(((1R,4R)-5-((tetrahydro-2H-pyran-4-yl)methyl)-2,5-diazabicyclo[2.2.1]heptan-2-yl)methyl)benzo[d]isoxazol-3-yl)dihydropyrimidine-2,4(1H,3H)-dione]	81	19	50
CC(C)(C)OC(=O)N1[C@@H]2CC[C@H]1CN(Cc1ccc3onc(N4CCC(=O)NC4=O)c3c1)C2 [Example 99, tert-butyl (1R,5S)-3-((3-(2,4-dioxotetrahydropyrimidin-1(2H)-yl)benzo[d]isoxazol-5-yl)methyl)-3,8-diazabicyclo[3.2.1]octane-8-carboxylate]	74	26	450
O=C1CCN(c2noc3ccc(CN4C[C@H]5CC[C@@H](C4)N5)cc23)C(=O)N1 [Example 100, 1-(5-(((1R,5S)-3,8-diazabicyclo[3.2.1]octan-3-yl)methyl)benzo[d]isoxazol-3-yl)dihydropyrimidine-2,4(1H,3H)-dione]	76	24	34

— patent US20250276964A1 (Novartis AG, priority 2021, published 2025)
